The target of series [1] is VCB: PROTAC: SMARCA2^BD ternary complex (Homo sapiens, UniProt P40337+P51531). Description: TR-FRET ternary complex affinity and cooperativity, SMARCA2. More on the design: P51531-2, residues 1373-1493 with additional N-terminal SM residues; GST (TEV site) (N); His6 (TEV site) (N, cleaved yes); made in house; host or cells: SMARCA2^BD: Escherichia coli BL21(DE3). In kind it is binding.

The next series concerns Caco-2 cell monolayer. Description: Bidirectional permeability measurement in Caco-2 cells. In kind it is in vitro ADME. The procedure, abridged: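 Compound quantified by LC-MS/MS in samples taken over up to 2 h across 14–21-day Caco-2 monolayers, after 24 h preincubation with 1 µM compound. Runs done without and with 5 µM zosuquidar to probe P-gp. Efflux ratio is the quotient of duplicate-mean Papp,BA over Papp,AB.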
Background: Passage across Caco-2 layers is used to estimate intestinal permeability.

The target in the next series is SMARCA2 (Homo sapiens, UniProt P51531). Description: SMARCA2 capillary electrophoresis protein assay in RKO cells. Particulars: mean ± SD. Details: endogenous in cells; host or cells: RKO, NCI-H1568, A549, HCT116, LU99, HCC-364, HCT-15, HCC4006, SK-N-AS. In kind it is cell-based. The method in brief: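 Cells (130,000–200,000) treated with compounds in DMSO at indicated concentrations; half-life and re-synthesis runs used 150,000–200,000 cells. Lysates analysed by capillary electrophoresis immunoassay (12–230 kDa Wes), SMARCA2/4 normalised to GAPDH. Curves fitted by 4-parameter logistic model where applicable.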

Series [2] deals with T1, (Homo sapiens, UniProt P51532).
T1 construct: P51532, residues 1448–1569 with additional N-terminal SM residues; GST (TEV site) (N); His6 (TEV site) (N, cleaved yes); made in house; host or cells: SMARCA4^BD: Escherichia coli BL21(DE3)
Description: TR-FRET ternary complex affinity and cooperativity, SMARCA4. In kind it is binding. Particulars: binary, PROTAC alone; individual replicates; read-out: SMARCA4 BD EC50. In general terms: Time-resolved FRET reads energy transfer from a long-lived donor to a nearby acceptor.

Series [3] addresses VCB: PROTAC: SMARCA4^BD ternary complex (Homo sapiens, UniProt P40337+P51532). The description is as above. In kind it is binding. Details: P51532, residues 1448–1569 with additional N-terminal SM residues; GST (TEV site) (N); His6 (TEV site) (N, cleaved yes); made in house; host or cells: SMARCA4^BD: Escherichia coli BL21(DE3).

Structures are written as SMILES. Where “and” joins values, the source holds several entries; their conditions need not be identical. Equal values may be shown once. Read-outs that look alike come from different tables or passages of the source.

SMARCA2, sequence (P51531 whole entry): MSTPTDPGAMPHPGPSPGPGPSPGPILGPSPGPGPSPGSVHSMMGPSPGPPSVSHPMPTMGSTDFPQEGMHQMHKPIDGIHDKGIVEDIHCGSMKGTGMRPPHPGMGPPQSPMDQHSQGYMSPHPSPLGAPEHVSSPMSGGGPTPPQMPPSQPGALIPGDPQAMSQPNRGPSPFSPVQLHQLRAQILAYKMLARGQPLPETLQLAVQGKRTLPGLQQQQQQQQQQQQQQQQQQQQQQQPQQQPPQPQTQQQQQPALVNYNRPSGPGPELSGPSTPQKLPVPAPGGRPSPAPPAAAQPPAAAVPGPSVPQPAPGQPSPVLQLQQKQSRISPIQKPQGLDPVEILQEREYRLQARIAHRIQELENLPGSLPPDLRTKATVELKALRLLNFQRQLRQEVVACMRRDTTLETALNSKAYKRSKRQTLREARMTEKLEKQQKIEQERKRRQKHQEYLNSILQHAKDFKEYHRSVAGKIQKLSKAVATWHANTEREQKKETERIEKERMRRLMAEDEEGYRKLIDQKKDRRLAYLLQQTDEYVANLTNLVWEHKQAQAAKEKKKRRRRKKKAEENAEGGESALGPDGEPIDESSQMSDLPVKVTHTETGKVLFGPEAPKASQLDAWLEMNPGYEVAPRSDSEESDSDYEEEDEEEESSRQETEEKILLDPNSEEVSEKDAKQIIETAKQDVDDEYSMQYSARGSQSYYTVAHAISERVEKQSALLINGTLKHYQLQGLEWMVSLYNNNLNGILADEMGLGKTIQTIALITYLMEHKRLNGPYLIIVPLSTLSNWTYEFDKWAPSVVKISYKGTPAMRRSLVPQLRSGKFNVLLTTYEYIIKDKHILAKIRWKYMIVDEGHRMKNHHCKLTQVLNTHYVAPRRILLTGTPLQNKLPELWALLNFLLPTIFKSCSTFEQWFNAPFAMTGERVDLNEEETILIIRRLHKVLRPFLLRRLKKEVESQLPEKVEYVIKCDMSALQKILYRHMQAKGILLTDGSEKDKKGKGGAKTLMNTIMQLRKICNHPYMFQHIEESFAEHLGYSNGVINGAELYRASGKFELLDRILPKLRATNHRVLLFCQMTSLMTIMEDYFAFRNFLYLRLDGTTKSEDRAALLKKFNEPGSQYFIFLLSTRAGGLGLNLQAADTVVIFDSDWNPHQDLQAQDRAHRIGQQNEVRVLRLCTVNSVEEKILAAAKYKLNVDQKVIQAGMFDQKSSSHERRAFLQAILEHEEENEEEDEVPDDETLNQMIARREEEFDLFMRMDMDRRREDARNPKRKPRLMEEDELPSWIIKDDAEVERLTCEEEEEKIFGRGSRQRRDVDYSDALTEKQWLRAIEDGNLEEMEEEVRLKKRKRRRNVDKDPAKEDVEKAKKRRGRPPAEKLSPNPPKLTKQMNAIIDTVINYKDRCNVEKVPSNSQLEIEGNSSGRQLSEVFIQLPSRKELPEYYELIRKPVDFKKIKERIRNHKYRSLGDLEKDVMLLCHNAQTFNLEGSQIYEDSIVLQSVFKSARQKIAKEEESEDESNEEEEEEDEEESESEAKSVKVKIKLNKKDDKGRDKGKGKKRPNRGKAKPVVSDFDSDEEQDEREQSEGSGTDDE
VCB: PROTAC: SMARCA2^BD ternary complex, sequence (P51531 with tags, fused parts or gaps isoform P51531-2): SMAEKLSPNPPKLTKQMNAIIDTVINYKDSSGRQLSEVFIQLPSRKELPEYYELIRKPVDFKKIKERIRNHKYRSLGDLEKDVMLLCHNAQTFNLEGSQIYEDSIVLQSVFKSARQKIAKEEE
VCB: PROTAC: SMARCA2^BD ternary complex, sequence (P40337 54-213): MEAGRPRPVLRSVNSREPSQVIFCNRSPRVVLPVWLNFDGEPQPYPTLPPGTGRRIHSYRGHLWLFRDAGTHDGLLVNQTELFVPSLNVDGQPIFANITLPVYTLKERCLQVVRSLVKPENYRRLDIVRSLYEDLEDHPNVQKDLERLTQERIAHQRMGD
VCB: PROTAC: SMARCA2^BD ternary complex, sequence (Q15369 17-112 partner): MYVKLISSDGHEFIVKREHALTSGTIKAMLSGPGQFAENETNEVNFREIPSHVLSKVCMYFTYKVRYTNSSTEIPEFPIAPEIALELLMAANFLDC
VCB: PROTAC: SMARCA2^BD ternary complex, sequence (Q15370 1-104 partner): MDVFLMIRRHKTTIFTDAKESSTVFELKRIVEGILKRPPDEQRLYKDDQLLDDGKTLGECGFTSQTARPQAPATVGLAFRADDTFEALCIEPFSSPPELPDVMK
T1 sequence (P51532 1448-1569): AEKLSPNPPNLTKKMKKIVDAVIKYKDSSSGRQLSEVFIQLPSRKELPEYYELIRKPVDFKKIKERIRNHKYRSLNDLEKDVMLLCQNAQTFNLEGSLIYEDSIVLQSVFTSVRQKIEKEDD
VCB: PROTAC: SMARCA4^BD ternary complex, sequence (P51532 1448-1569): as above
VCB: PROTAC: SMARCA4^BD ternary complex, sequence (P40337 54-213): as the sequence (P40337 54-213) above
VCB: PROTAC: SMARCA4^BD ternary complex, sequence (Q15369 17-112 partner): as the sequence (Q15369 17-112 partner) above
VCB: PROTAC: SMARCA4^BD ternary complex, sequence (Q15370 1-104 partner): as the sequence (Q15370 1-104 partner) above

As a reminder, the EC50 is the concentration giving half of the maximal effect. Consider `Cc1ncsc1-c1ccc([C@H](CCC(C)(C)CCN2CCC(c3ccc4c(c3)n(C3CCCC3)c3nc(=O)c5c(Br)cccc5n43)CC2)NC(=O)[C@@H]2C[C@@H](O)CN2C(=O)[C@@H](NC(=O)C2(F)CC2)C(C)(C)C)cc1` [compound 30], for which the EC50 is 45.6 nM and 53.2 nM and 68.1 nM and 44.6 nM and 46.9 nM in series [1] (PROTAC + VCB, individual replicates, read-out: Ternary SMARCA2 BD EC50 (PROTAC + VCB)); 51 ± 10 nM in series [1] (TR-FRET competition for SMARCA2BD, + VCB, mean ± SD, read-out: TR-FRET Ternary SMARCA2BD EC50 (PROTAC + VCB)); > 2000 nM and 564 nM and > 400 nM in series [2]; 88.3 nM and 118 nM and 113 nM in series [3] (PROTAC + VCB, individual replicates, read-out: Ternary SMARCA4 BD EC50 (PROTAC + VCB)); 106 ± 16 nM in series [3] (TR-FRET competition for SMARCA4BD, + VCB, mean ± SD, read-out: TR-FRET Ternary SMARCA4BD EC50 (PROTAC + VCB)). Further, the “Caco-2 Efflux ratio” value in the series with Caco-2 cell monolayer (Caco-2) was determined as 9.412 No peak area. Further, in the series with Caco-2 cell monolayer (Caco-2), the “Caco-2 Pab” value is <0.3 10-6 cm/s. The “Modified Caco-2 Efflux ratio” value in the series with Caco-2 cell monolayer (Modified Caco-2) is 7.333 and 12.000 and 10 ± 3. Besides, in the series on Caco-2 cell monolayer (Modified Caco-2, a to b), the “Modified Caco-2 Pab” value is 4.5 ×10⁻⁶ cm/s and 2.5 ×10⁻⁶ cm/s. Also, in the series on Caco-2 cell monolayer (Modified Caco-2, a to b, + PGPi (Zosuquidar)), the “Modified Caco-2 Pab + PGPi (Zosuquidar)” value is 7.2 ×10⁻⁶ cm/s and 8.4 ×10⁻⁶ cm/s. Moreover, the DC50 on SMARCA2 (RKO (4 h)) is 8 ± 2 nM; at SMARCA2 (RKO (18 h)), 3 ± 1 nM. Besides, the “SMARCA2 Dmax” value at SMARCA2 (RKO (4 h)) is listed as 74 ± 5%; at SMARCA2 (RKO (18 h)), 82 ± 5%.

The values above are taken from publication PMC9551036, “A selective and orally bioavailable VHL-recruiting PROTAC achieves SMARCA2 degradation in vivo” (Nature Communications, 2022).
